What was measured:
[1] = system: Pest in infected Scenedesmus dimorphus culture; assay: Fungicide efficacy on pest control in infected microalgae culture; assay type: cell-based
Description: Failure to treat an infected culture results in the collapse and loss of the microalgae culture. […] Test fungicides are graded on a rating scale of 0 to 3 where a score of 0 represents an efficacy of between 0 and 25%, a score of 1 represents an efficacy of between 26 and 50%, a score of 2 represents an efficacy of between 51 and 75% and a score of 3 represents an efficacy of between 76 and 100%.

[2] = system: Paraphysoderma sedebokerensis; assay: Haematococcus pluvialis outdoor pond, PCR monitoring and treatment; details: 1 ppm
Experimental: A 200,000 liter outdoor pond is inoculated with Haematococcus pluvialis at an initial OD (750 nm) of ˜0.15 (pond P08). Growth of the microalgae is monitored daily by measuring the ash free dry weight of the culture. PCR monitoring is performed daily to detect the presence of the chytrid fungus Paraphysoderma sedebokerensis or close relatives using […] (SEQ ID NO. 38) and […] (SEQ ID NO. 39) as primers.
(§1) Initially, the Ct value for the pest is above the threshold of Ct=30. The measured Ct observed for P. sedebokerensis stays below Ct=30 and indicates a need for crop protective action. Once detected with a Ct<30, chlorothalonil is added at a concentration of 1 ppm. Daily monitoring is continued and the Ct observed for P. sedebokerensis increases above the Ct=30 threshold and remains above the threshold.

[3] = system: Rhizophidium planktonicum; assay: Arthrospira sp. outdoor pond, qPCR monitoring and treatment; details: 1 ppm
Experimental: A 200,000 liter outdoor pond located in Las Cruces, N. Mex. is inoculated with Arthrospira sp. at an initial DW of 0.2 g/l. Growth of the microalgae is monitored daily by measuring the ash free dry weight of the culture. qPCR monitoring is performed daily to detect the presence of the chytrid fungus Rhizophidium planktonicum or close relatives using primers […] (SEQ ID NO. 40) and […] (SEQ ID NO. 41).
as §1, with “R. planktonicum” for “P. sedebokerensis”

With `N#Cc1c(Cl)c(Cl)c(Cl)c(C#N)c1Cl` [chlorothalonil, 2,4,5,6-tetrachlorobenzene-1,3-dicarbonitrile] the “Scenedesmus dimorphus Efficacy confirmation” value ([1]; @ 2 ppm, second trial) was 75.7% @ 2 ppm, the activity at 2 ppm ([1]; Tetradesmus dimorphus, read-out: Scenedesmus dimorphus efficacy) was 84.5% and the Rating ([1]; rating scale of 0 to 3 by percent efficacy) was 3 (a score of 3 represents an efficacy of between 76 and 100%). The “Ct observed for P. sedebokerensis after treatment” value [2] was greater than 30 and the “Ct observed for R. planktonicum after treatment” value [3] was greater than 30.

Source: patent publication US20140378513A1, “USE OF FUNGICIDES IN LIQUID SYSTEMS” (priority 2011, published 2014)
